Laboratory results taken from patent publication US20050182252A1, “Novel 2'-C-methyl nucleoside derivatives” (priority 2004, published 2005).
Counter-ions that a name gives are not always drawn.

Compound	melting point [°C]
C[C@@]1(O)[C@H](O)[C@@H](COP2(=O)OCC[C@H](c3cccc(F)c3F)O2)O[C@H]1n1ccc2c(=O)[nH]c(N)nc21 (stereo partly drawn) (as salt: trifluoroacetic acid salt) [Compound 17.20, 2-amino-7-(cis-5′-O[4-(2,3-difluorophenyl)-2-oxo-1,3,2-dioxaphosphorinan-2-yl]-2′-C methyl-beta-D-ribofuranosyl)-7H-pyrrolo[2,3-d]pyrimidin-4(3H)-one trifluoroacetic acid salt]	215 to 220
C[C@@]1(O)[C@H](O)[C@@H](CO[P@@]2(=O)OCC[C@@H](c3ccncc3)O2)O[C@H]1n1ccc2c(=O)[nH]c(N)nc21 [Compound 17.13, 2-amino-7-(cis-5-O-[4-(S)-(pyridin-4-yl)-2-oxo-1,3,2-dioxaphosphorinan-2-yl]-2-C methyl-beta-D-ribofuranosyl)-7H-pyrrolo[2,3-d]pyrimidin-4(3H)-one]	138 to 141
C[C@@]1(O)[C@H](O)[C@@H](COP2(=O)OCC[C@H](c3ccccc3F)O2)O[C@H]1n1ccc2c(N)ncnc21 (stereo partly drawn) [Compound 16.39, 4-amino-7-(cis-5′-O-[4-(2-fluorophenyl)-2-oxo-1,3,2-dioxaphosphorinan-2-yl]-2′-C-methyl-beta-D-ribofuranosyl)-7H-pyrrolo[2,3-d]pyrimidine]	101 to 103
C[C@@]1(O)[C@H](O)[C@@H](COP2(=O)OCC[C@@H](c3cncc(Br)c3)O2)O[C@H]1n1ccc2c(N)ncnc21 (stereo partly drawn) [Compound 16.11, 4-amino-7-(cis-5′-O-[4-(5-bromopyridin-3-yl)-2-oxo-1,3,2-dioxaphosphorinan-2-yl]-2′-C-methyl-beta-D-ribofuranosyl)-7H-pyrrolo[2,3-d]pyrimidine]	132 to 135
C[C@@]1(O)[C@H](O)[C@@H](COP2(=O)OCC[C@H](c3ccc(F)cc3Cl)O2)O[C@H]1n1ccc2c(N)ncnc21 (stereo partly drawn) (as salt: trifluoroacetic acid salt) [Compound 16.38, 4-amino-7-(cis-5′-O-[4-(2-chloro-4-fluorophenyl)-2-oxo-1,3,2-dioxaphosphorinan-2-yl]-2′-C-methyl-beta-D-ribofuranosyl)-7H-pyrrolo[2,3-d]pyrimidine trifluoroacetic acid salt]	138 to 141
C[C@@]1(O)[C@H](O)[C@@H](COP2(=O)OCC[C@@H](c3cccc(F)c3)O2)O[C@H]1n1ccc2c(=O)[nH]c(N)nc21 (stereo partly drawn) [Compound 17.14, 2-amino-7-(cis-5′-O-[4-(3-fluorophenyl)-2-oxo-1,3,2-dioxaphosphorinan-2-yl]-2-C methyl-beta-D-ribofuranosyl)-7H-pyrrolo[2,3-d]pyrimidin-4(3H)-one]	170
C[C@@]1(O)[C@H](O)[C@@H](COP2(=O)OCC[C@H](c3cc(F)cc(F)c3)O2)O[C@H]1n1ccc2c(=O)[nH]c(N)nc21 (stereo partly drawn) (as salt: trifluoroacetic acid salt) [Compound 17.11, 2-amino-7-(cis-5-O-[4-(3,5-difluorophenyl)-2-oxo-1,3,2-dioxaphosphorinan-2-yl]-2-C methyl-beta-D-ribofuranosyl)-7H-pyrrolo[2,3-d]pyrimidin-4(3H)-one trifluoroacetic acid salt]	182 to 185
C[C@@]1(O)[C@H](O)[C@@H](COP2(=O)OCC[C@H](c3ccccc3C(F)(F)F)O2)O[C@H]1n1ccc2c(N)ncnc21 (stereo partly drawn) [Compound 16.29, 4-amino-7-(cis-5′-O-[4-(2-trifluoromethylphenyl)-2-oxo-4,3,2-dioxaphosphorinan-2-yl]-2′-C-methyl-beta-D-ribofuranosyl)-7H-pyrrolo[2,3-d]pyrimidine]	115 to 120
C[C@@]1(O)[C@H](O)[C@@H](CO[P@@]2(=O)OCC[C@@H](c3cccc(Cl)c3)O2)O[C@H]1n1ccc2c(N)ncnc21 [Compound 16.5, 4-amino-7-(cis-5′-[4-(S)-(3-chlorophenyl)-2-oxo-1,3,2-dioxaphosphorinan-2-yl]-2′-C-methyl-beta-D-ribofuranosyl)-7H-pyrrolo[2,3-d]pyrimidine]	135 to 138
C[C@@]1(O)[C@H](O)[C@@H](COP2(=O)OCC[C@H](c3cncc(Br)c3)O2)O[C@H]1n1ccc2c(=O)[nH]c(N)nc21 (stereo partly drawn) (as salt: salt) [Compound 17.26, 2-amino-7-(cis-5′-O-[4-(5-bromo-pyridin-3-yl)-2-oxo-1,3,2-dioxaphosphorinan-2-yl]-2′-C methyl-beta-D-ribofuranosyl)-7H-pyrrolo[2,3-d]pyrimidin-4(3H)-one]	185 to 189
C[C@@]1(O)[C@H](O)[C@@H](COP2(=O)OCC[C@@H](c3cc(Cl)ccc3Br)O2)O[C@H]1n1ccc2c(N)ncnc21 (stereo partly drawn) [Compound 16.25, 4-amino-7-(cis-5′-O-[4-(2-bromo-5-chlorophenyl)-2-oxo-1,3,2-dioxaphosphorinan-2-yl]-2′-C-methyl-beta-D-ribofuranosyl)-7H-pyrrolo[2,3-d]pyrimidine]	193 to 196
C[C@@]1(O)[C@H](O)[C@@H](COP2(=O)OCC[C@@H](c3ccccn3)O2)O[C@H]1n1cnc2c(N)ncnc21 (stereo partly drawn) (as salt: trifluoroacetic acid salt) [Compound 21.7, cis-5′-O-[4-(pyridin-2-yl)-2-oxo-1,3,2-dioxaphosphorinan-2-yl]-2′-C-beta-methyl-adenosine trifluoroacetic acid salt]	118 to 120
C[C@@]1(O)[C@H](O)[C@@H](COP2(=O)OCC[C@@H](c3ccc(S(C)(=O)=O)cc3)O2)O[C@H]1n1cnc2c(N)ncnc21 (stereo partly drawn) (as salt: trifluoroacetic acid salt) [Compound 21.8, cis-5′-O-[4-(4-methylsulfonylphenyl)-2-oxo-1,3,2-dioxaphosphorinan-2-yl]-2′-C-beta-methyl-adenosine trifluoroacetic acid salt]	185 to 187
C[C@@]1(O)[C@H](O)[C@@H](COP2(=O)OCC[C@@H](c3cc(F)cc(F)c3)O2)O[C@H]1n1cnc2c(N)ncnc21 (stereo partly drawn) [Compound 21.4, cis-5′-O-[4-(3,5-difluorophenyl)-2-oxo-1,3,2-dioxaphosphorinan-2-yl]-2′-C-beta-methyl-adenosine]	120 to 123
C[C@@]1(O)[C@H](O)[C@@H](CO[P@@]2(=O)OCC[C@@H](c3ccccc3)O2)O[C@H]1n1ccc2c(N)ncnc21 [Compound 16.12, 4-amino-7-(cis-5′-O-[4-(S)-phenyl-2-oxo-1,3,2-dioxaphosphorinan-2-y]-2′-C-methyl-beta-D-ribofuranosyl)-7H-pyrrolo[2,3-d]pyrimidine]	115 to 118
CC1(C)C[C@H](c2ccccc2)OP(=O)(OC[C@H]2O[C@@H](n3ccc4c(N)ncnc43)[C@](C)(O)[C@@H]2O)O1 (stereo partly drawn) [Compound 16.4, 4-amino-7-(cis-5′-O-[6,6-dimethyl-4-phenyl-2-oxo-1,3,2-dioxaphosphorinan-2-yl]-2′-C-methyl-beta-D-ribofuranosyl)-7H-pyrrolo[2,3-d]pyrimidine]	140 to 142
C[C@@]1(O)[C@H](O)[C@@H](COP2(=O)OCC[C@H](c3ccccn3)O2)O[C@H]1n1ccc2c(N)ncnc21 (stereo partly drawn) (as salt: trifluoroacetic acid salt) [Compound 16.33, 4-amino-7-(cis-5′-O-14-(pyridin-2-yl-2-oxo-1,3,2-dioxaphosphorinan-2-yl]-2′-C-methyl-beta-D-ribofuranosyl)-7H-pyrrolo[2,3-d]pyrimidine trifluoroacetic acid salt]	88 to 90
CO[C@@H]1COP(=O)(OC[C@H]2O[C@@H](n3ccc4c(=O)[nH]c(N)nc43)[C@](C)(O)[C@@H]2O)O[C@@H]1c1cccc(Cl)c1 (stereo partly drawn) [Compound 17.19]	148 to 151
C[C@@]1(O)[C@H](O)[C@@H](COP2(=O)OCC[C@H](c3ccc(Cl)cc3Cl)O2)O[C@H]1n1ccc2c(=O)[nH]c(N)nc21 (stereo partly drawn) [Compound 17.25, 2-amino-7-(cis-5-O-[4-(2,4-dichlorophenyl)-2-oxo-1,3,2-dioxaphosphorinan-2-yl]-2-C methyl-beta-D-ribofuranosyl)-7H-pyrrolo[2,3-d]pyrimidin-4(3H)-one]	175
C[C@@]1(O)[C@H](O)[C@@H](COP2(=O)OCC[C@@H](c3cccc(C#N)c3)O2)O[C@H]1n1cnc2c(N)ncnc21 (stereo partly drawn) [Compound 21.2, cis-5′-O-[4-(3-cyanophenyl)-2-oxo-1,3,2-dioxaphosphorinan-2-yl]-2′-C-beta-methyl-adenosine]	153 to 156
C[C@@]1(O)[C@H](O)[C@@H](COP2(=O)OCC[C@@H](c3cccc(Cl)c3)O2)O[C@H]1n1cnc2c(N)ncnc21 (stereo partly drawn) (as salt: trifluoroacetic acid salt) [Compound 21.1, cis-5′-O-[4-(S)-(3-chlorophenyl)-2-oxo-1,3,2-dioxaphosphorinan-2-yl]-2′-C-beta-methyl-adenosine trifluoroacetic acid salt]	125 to 128
C[C@@]1(O)[C@H](O)[C@@H](COP2(=O)OCC[C@H](c3cccnc3)O2)O[C@H]1n1ccc2c(N)ncnc21 (stereo partly drawn) [Compound 16.32]	134 to 138
C[C@@]1(O)[C@H](O)[C@@H](CO[P@@]2(=O)O[C@H](c3ccccc3)C[C@H](c3ccccc3)O2)O[C@H]1n1ccc2c(N)ncnc21 (as salt: trifluoroacetic acid salt) [Compound 16.18, 4-amino-7-(trans-5′-O-[4,6-cis-diphenyl-2-oxo-1,3,2-dioxaphosphorinan-2-yl]-2′-C-methyl-beta-D-ribofuranosyl)-7H-pyrrolo[2,3-d]pyrimidine trifluoroacetic acid salt]	> 220
C[C@@]1(O)[C@H](O)[C@@H](COP2(=O)OCC[C@H](c3ccc(Cl)cc3)O2)O[C@H]1n1ccc2c(N)ncnc21 (stereo partly drawn) (as salt: trifluoroacetic acid salt) [Compound 16.35, 4-amino-7-(cis-5′-O-[4-(4-chlorophenyl-2-oxo-1,3,2-dioxaphosphorinan-2-yl]-2′-C-methyl-beta-D-ribofuranosyl)-7H-pyrrolo[2,3-d]pyrimidinetrifluoroacetic acid salt]	182 to 184
